This assay addresses Induced myeloid leukemia cell differentiation protein Mcl-1 (Homo sapiens) (UniProt Q07820). The assay is described as follows: Mcl-1/Noxa binding inhibitor potency, dose response, biochemical, TR-FRET (AID 1417). Conditions: Mcl-1/Noxa peptide interaction, cell-free TR-FRET (terbium/rhodamine), 2 h; measured here: absolute IC50.
Chain of Induced myeloid leukemia cell differentiation protein Mcl-1 (Homo sapiens) (Q07820 whole entry, looked up): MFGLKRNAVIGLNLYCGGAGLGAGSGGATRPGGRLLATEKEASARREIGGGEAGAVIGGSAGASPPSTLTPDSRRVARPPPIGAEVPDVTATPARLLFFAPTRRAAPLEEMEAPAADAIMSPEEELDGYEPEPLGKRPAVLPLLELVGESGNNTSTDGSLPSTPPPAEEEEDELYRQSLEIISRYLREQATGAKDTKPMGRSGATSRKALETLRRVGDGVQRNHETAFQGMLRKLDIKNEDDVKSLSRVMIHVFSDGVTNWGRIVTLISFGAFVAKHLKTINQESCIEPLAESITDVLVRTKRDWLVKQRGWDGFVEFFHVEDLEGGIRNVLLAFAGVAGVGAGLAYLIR
As to `CN1C(=O)/C(=C/c2ccc(-c3ccccc3[N+](=O)[O-])o2)SC1=Nc1ccc(Cl)c(C(=O)O)c1`, the IC50 is less than 400 nM. The same measure for `O=C(Nc1ccc(N2CCCC2)cc1)c1ccc2ccccc2c1`: 4970 nM. For the compound `Nc1ccc(N2CCCCC2)cc1N1CCCCC1`, the half-inhibitory concentration (IC50) is more than 54000 nM. On to `Oc1[nH]c2ccccc2c1N=Nc1nc2ccccc2s1`, for which the IC50 worked out at 5010 nM.

Compound `O=S(=O)(Nc1cc(Sc2ncn[nH]2)c(O)c2ccccc12)c1ccccc1` gave a half-inhibitory concentration (IC50) of less than 400 nM.

In the case of `O=C(COc1cccnc1[N+](=O)[O-])c1ccc(Cl)s1`, the half-maximal inhibitory concentration (IC50) came to 2840 nM. In the case of `COc1ccc(OC)c2c1C(=O)C(Cl)=C(Cl)C2=O` it was less than 400 nM; in that of `C=CCn1c(C)cc(C(=O)Cn2ncc(Cl)c(Cl)c2=O)c1C`, 3070 nM; in that of `CCNc1ccc(Br)cc(C(=O)/C=C/c2ccc(Cl)cc2)c1=O`, 2030 nM. In the case of `C=CCOc1c(OC)cc(/C=N/Nc2cccc(C(=O)O)c2)c(Br)c1Br`, the IC50 is more than 54000 nM. In the case of `Cc1c(O)cc2c(c1O)C(=O)CC(c1ccc(O)cc1)O2` (centres undefined) it was 2840 nM; in that of `O=C(Nc1ccc(Cl)cc1)N1CCc2[nH]c3ccccc3c2C1`, more than 54000 nM; in that of `COc1cc(/C=C2\SC(=O)N(Cc3ccc(F)cc3)C2=O)cc([N+](=O)[O-])c1O`, 7010 nM. `CC(C)c1ccc(S(=O)(=O)/N=C2/C=C(Sc3ncn[nH]3)C(=O)c3ccccc32)cc1` returned an IC50 of less than 400 nM.

`O=[N+]([O-])c1ccc(/C=N/NC(=S)Nc2ccc(Cl)cc2Cl)s1` gave an IC50 of 1340 nM. In the case of `CCOC(=O)c1c(OCC)[nH]c2c1cc(O)c1ccccc12` it was less than 400 nM. As to `O=C1c2ccc([N+](=O)[O-])cc2NC(c2ccco2)N1/N=C/c1ccco1` (centres undefined), the IC50 is more than 54000 nM. In the case of `O=C(/C=C1\NC2(CCCC2)Cc2ccccc21)C(=O)N/N=C/c1ccc(O)c(O)c1` it was 3470 nM. Consider `CCNc1nc(NCC)nc(C(=O)NN)n1`, for which the 50% inhibitory concentration (IC50) is less than 400 nM.

Turning to `COc1cc(SSc2cc(OC)cc([N+](=O)[O-])c2N)c(N)c([N+](=O)[O-])c1`, the IC50 was less than 400 nM.

On to `c1ccc(Nc2cccc(Nc3ccccc3)c2)cc1`, for which the IC50 is more than 54000 nM. In turn, `Cc1nc(S/C(=C\c2ccc(-c3ccc(C(=O)O)c(Cl)c3)o2)C(=O)O)n[nH]1` yielded a half-maximal inhibitory concentration (IC50) of less than 400 nM.

`O=C(Nc1ccc(N2CCCC2)cc1)c1ccc(Br)o1` had an IC50 of 1060 nM. On to `Cc1ccc(-n2cccc2/C=C2\C(=N)N3N=C(c4ccco4)SC3=NC2=O)cc1`, for which the IC50 was 1530 nM. `O=C(/C=C/c1ccc(Cl)c([N+](=O)[O-])c1)Nc1ccc(N2CCCC2)cc1` gave a 50% inhibitory concentration (IC50) of 8300 nM. Consider `CCNc1ccc(Br)cc(C(=O)/C=C/c2ccc(Cl)cc2Cl)c1=O`, for which the IC50 is 4190 nM. In the case of `O=[N+]([O-])c1ccc2[nH]c(O)c(N=NC(=S)Nc3cccnc3)c2c1` it was 8860 nM; in that of `Cc1ccc(N=C2NC(=O)/C(=C/C=C/c3ccco3)S2)cc1`, 7160 nM.

In turn, `CC(C)C(C(=O)O)N1C(=O)/C(=C/C=C/c2ccco2)SC1=S` (centres undefined) had an IC50 of less than 400 nM.

In turn, `Oc1ccc(N2CCN(c3ncnc4sc(-c5ccccc5)cc34)CC2)cc1` came in with an IC50 of 1150 nM.

`CC(C)(C)C1CCc2c(C(=O)NNC(=O)CCC(=O)O)csc2C1` (centres undefined) gave a concentration for half-maximal inhibition (IC50) of more than 54000 nM. `CCN(CC)c1ccc(/C=N/N2CCN(Cc3ccccc3)CC2)cc1` showed a half-maximal inhibitory concentration (IC50) of more than 54000 nM.

With `O=C(Nc1ccc([N+](=O)[O-])cc1)Nc1nc(-c2ccc(Cl)s2)cs1`, the IC50 was determined as 1820 nM. In the case of `COc1cc(C(=O)Nc2ccc(N(C)C)cc2)cc(OC)c1OC` it was more than 54000 nM.

As for `CCCOc1ccc(Cc2nn3c(=O)/c(=C/c4ccco4)sc3nc2=O)cc1`, the 50% inhibitory concentration (IC50) is more than 54000 nM.

Compound `Cc1ccc(-c2cc(C(=O)NCCCn3ccnc3)c3cc(Br)ccc3n2)o1` came in with an IC50 of more than 54000 nM.

The compound `COc1ccc(Cl)c(N2CCN(CCCNC(=O)Nc3ccc(C)cc3)CC2)c1` had a concentration for half-maximal inhibition (IC50) of 6020 nM. In the case of `O=[N+]([O-])C(=c1ccc2c(c1)N1C3=C(CCCC3)CC3CCCCC31N=2)[N+](=O)[O-]` (centres undefined) it was less than 400 nM; in that of `O=C(O)CCc1nc(-c2cccs2)no1`, more than 54000 nM. As to `CCN(CC)c1ccc(NC(=O)/C=C\c2ccccc2Cl)cc1`, the IC50 is less than 400 nM. In the case of `CCOc1cc(/C=C(\C#N)c2[nH]nc(N)c2C#N)ccc1O`, the half-inhibitory concentration (IC50) is 4600 nM.

Compound `CCCCn1c(-c2ccc(Cl)cc2)nc2c(=O)n(C)c(=O)[nH]c21` gave a 50% inhibitory concentration (IC50) of more than 54000 nM. The same measure for `Cc1ccccc1C(=O)Nc1nc(-c2cccnc2)cs1`: less than 400 nM; for `COc1cc2c(-c3ccc(O)cc3)nc3c(c(C)nn3-c3ccccc3)c2cc1OC`: 1190 nM; for `CCCOc1ncnc2c1[nH]c1ccccc12`: more than 54000 nM. In the case of `Nc1ccc(-c2nc3cc([N+](=O)[O-])ccc3o2)cc1` it was 7160 nM. Compound `Cc1ccc(-n2c(O)c(C=Nc3ccccc3-c3n[nH]c(=S)[nH]c3=O)c3ccccc3c2=O)cc1C` had an IC50 of 2750 nM.

With `CCCCN1C(=O)/C(=C/C=C/c2ccco2)C(=O)NC1=S`, the IC50 amounted to 550 nM. `c1ccc(CN=C2NN=C(c3cc4ccccc4o3)CS2)cc1` returned a half-maximal inhibitory concentration (IC50) of more than 54000 nM. As for `O=C(O)c1cccc(Cn2c(Cl)c(/C=N/NC(=O)c3cc4ccccc4cc3O)sc2=O)c1`, the IC50 is 3350 nM. As to `NC(=S)n1[nH]c(-c2ccc([N+](=O)[O-])cc2)c(N=Nc2ccccc2[N+](=O)[O-])c1=O`, the concentration for half-maximal inhibition (IC50) is less than 400 nM. The same measure for `CCN(c1ccc(NC(=O)COC(=O)CCc2nc3ccccc3n2-c2ccccc2)cc1)C(C)C`: less than 400 nM; for `O=C(N/N=C/c1cccc(F)c1)c1cc(-c2ccco2)nc2ccccc12`: less than 400 nM. The same measure for `O=C(O)c1ccccc1/C=N/NC(=O)c1cc(-c2ccco2)nc2ccccc12`: less than 400 nM; for `Oc1ccccc1C1Nc2cccc3cccc(c23)N1`: 6640 nM; for `O=C(O)c1cccc(-c2ccc(/C=c3/sc4nc5ccccc5n4c3=O)o2)c1`: 1020 nM.

Compound `Nc1c(C(=O)NCc2ccco2)sc2nc3c(cc12)C(=O)CCC3` gave an IC50 of 2340 nM. The compound `CC(=O)c1ccc(-n2c(CCC(=O)O)ccc2-c2cccs2)cc1` yielded a 50% inhibitory concentration (IC50) of more than 54000 nM.

`CNC(=O)COC(=O)c1cc(-c2ccco2)nc2ccccc12` showed a 50% inhibitory concentration (IC50) of 3160 nM. The same measure for `CC1(C)CC(=O)C(C=Nc2cccc(/N=C/C3=C(O)CC(C)(C)CC3=O)n2)=C(O)C1`: more than 54000 nM; for `O=C(Nc1cccc(Cl)c1)c1cc(N=Nc2ccc([N+](=O)[O-])cc2Cl)ccc1O`: 1560 nM; for `Cc1ccc2c(c1Cl)NC(C(=O)O)C1CC(Sc3ccccc3[N+](=O)[O-])C(Cl)C21` (centres undefined): 2520 nM. `C1=CC2c3ccccc3NC(c3ccncc3)C2C1` (centres undefined) returned a half-inhibitory concentration (IC50) of 1810 nM.

For the compound `O=C(NCCCCc1ccccc1)C1CC(c2ccccc2[N+](=O)[O-])=NO1` (centres undefined), the half-maximal inhibitory concentration (IC50) was more than 54000 nM. With `COc1cc(C(Nc2ccccn2)c2ccc3ccc(C)nc3c2O)cc(OC)c1O` (centres undefined), the half-inhibitory concentration (IC50) was less than 400 nM. In turn, `Cn1c(N)c(C(=O)COC(=O)c2cc(-c3ccco3)nc3ccccc23)c(=O)n(C)c1=O` yielded an IC50 of 3410 nM. Compound `O=c1[nH]c(C(Cl)Cl)nc2sc3c(c12)CCN(Cc1ccccc1)C3` registered a half-inhibitory concentration (IC50) of more than 54000 nM. For `O=C1NC(=S)N(c2ccc(F)cc2)C(=O)/C1=C\c1ccoc1`, the IC50 was less than 400 nM. `CCc1ccc(NC(=O)N(CCN2CCOCC2)Cc2ccc3c(c2)CCCN3CC)cc1` gave an IC50 of more than 54000 nM. The same measure for `CN(C)S(=O)(=O)c1cccc(-c2nn(-c3ccccc3)cc2/C=C2\SC(=S)NC2=O)c1`: 480 nM. The same measure for `CN(C)c1ccc(NC(=O)Nc2ccc3snnc3c2)cc1`: less than 400 nM; for `CCC(=O)N(CC)C1=C(O)c2ccccc2C(=O)C1=O`: 997 nM; for `O=C1Nc2ccccc2/C1=N/N=C/c1ccc(-c2ccc([N+](=O)[O-])cc2)o1`: less than 400 nM. As for `Cc1ccc(-n2cccc2/C=C2/C(=N)N3C(=NC2=O)SN=C3S(C)(=O)=O)cc1Cl`, the IC50 worked out at 1100 nM.

As to `CCOc1ccc(/C=C/[N+](=O)[O-])c2ccccc12`, the concentration for half-maximal inhibition (IC50) stood at 1700 nM.

As to `Cc1ccc(C(=O)COC(=O)CNC(=O)c2ccc(N3C(=O)c4ccccc4C3=O)cc2)cc1C`, the half-inhibitory concentration (IC50) was more than 54000 nM. In the case of `O=C(NCC1CCCO1)c1ccc(Cn2c(=S)[nH]c3ccccc3c2=O)cc1` (centres undefined) it was more than 54000 nM; in that of `Cc1ccc(N=Nc2c(N)[nH]n3c(=O)cc(-c4ccccc4)nc23)cc1`, 14000 nM; in that of `CN1C=C/C(=C\c2cc[n+](C)c3ccccc23)c2ccccc21`, less than 400 nM. `Cc1cc(C(F)F)n2nc(C(=O)Nc3sc4c(c3C(N)=O)CCC4)nc2n1`: the IC50 was found to be 11400 nM.

`CCOC(=O)c1c(C)oc2c1c(CN1CCN(CCO)CC1)c(O)c1ccccc12` came in with an IC50 of less than 400 nM. Compound `CC(C(=O)NC1CCCC1)N(Cc1ccco1)C(=O)c1snc(C(=O)NC2CCCC2)c1N` (centres undefined) gave a half-maximal inhibitory concentration (IC50) of more than 54000 nM.

Compound `Cn1c(SCC(=O)Nc2ccc3nc(SCC(=O)N4CCCC4)sc3c2)nnc1-c1ccccc1` registered an IC50 of 2240 nM.

Consider `COc1ccc(N2CCC(CNC(=O)Nc3ccc(C)c(C)c3)C2)cc1` (centres undefined), for which the half-inhibitory concentration (IC50) was more than 54000 nM. The same measure for `Cc1cc(C)n2c(SC/C(O)=C(\C#N)c3nc4ccccc4[nH]3)nnc2n1`: less than 400 nM. Turning to `O=[N+]([O-])c1cc(/C=N/Nc2nc3ccccc3[nH]2)c(O)cc1O`, the concentration for half-maximal inhibition (IC50) came out at 13300 nM. In the case of `COc1cc2c(ccc3cc(OC)c(OC)c(O)c32)cc1O` it was less than 400 nM; in that of `O=[N+]([O-])c1cc(Cl)cc(/C=N/NC(=S)Nc2cc(S(=O)(=O)N3CCOCC3)ccc2Cl)c1O`, less than 400 nM.

Compound `O=C(NCc1ccccn1)c1ccc2nc(-c3ccco3)c(-c3ccco3)nc2c1` displayed an IC50 of 1380 nM.

For `Oc1c(Cl)cc(Cl)c(Cl)c1Cc1c(O)c(Cl)cc(Cl)c1Cl`, the half-maximal inhibitory concentration (IC50) is less than 400 nM.

As to `Cc1nnc(Sc2cc(NCCO)c([N+](=O)[O-])c3nonc23)s1`, the IC50 is less than 400 nM.

The compound `COc1ccc(/C=C2\C(=O)N(c3c(Cl)cc(Cl)cc3Cl)N=C2NC(=O)c2cccc([N+](=O)[O-])c2)cc1` gave a 50% inhibitory concentration (IC50) of 2960 nM.

As for `Oc1c(Br)cc(C=Nc2ccc3nc(-c4ccccc4)[nH]c3c2)c(O)c1Br`, the 50% inhibitory concentration (IC50) turned out to be 594 nM.

For `CCCCn1c(SCC(=O)NCCOC)nc2ccc(N3CCOCC3)cc2c1=O`, the IC50 is more than 54000 nM.

These data come from PubChem BioAssay AID1417 (Emory University Molecular Libraries Screening Center, 2008).
